What all share (experiment): NCI tumour cell line growth inhibition, 48 h
Test [1] deals with SK-MEL-2 melanoma.
In test [2] the test system is MCF7 breast.
Test [3] deals with SNB-19 CNS.
For test [4], the system named is UACC-257 melanoma.
The subject of test [5] is DU-145 prostate.
Test [6] has as its system MALME-3M melanoma.
Test [7] relates to HCC-2998 colon.
The test system of test [8] is HCT-15 colon.
Test [9] relates to EKVX NSCLC.
For test [10], the system named is A498 renal.

Structures are written as SMILES.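 Five compound concentrations were applied to cells in 96-well plates for 48 hours; endpoints were derived by simple linear interpolation of the resulting dose-response curve. The concentration for 50% growth inhibition is given as GI50. At the TGI there is no net growth.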

As for `NC(N)=N/N=C/c1cccc(Cl)c1Cl`, the GI50 in [1] was 2.22 µM; in test [2], 2.09 µM; in test [3] it was 3.32 µM; in [4], 6.26 µM; in test [5], 9.18 µM; in test [6], 4.62 µM. The GI50 is 1.73 µM in test [7], 3.25 µM in [8], 9.02 µM in [9] and 11.1 µM in [10]. The TGI in [1] came out at 4.16 µM; in test [2], 5.03 µM; in test [3], 11.8 µM; in test [4], 20.6 µM; in test [5], 21.1 µM; in [6] it was 18.1 µM. In addition, the TGI was 3.47 µM in test [7], 11.7 µM in [8], 24.2 µM in [9] and 25.6 µM in test [10].
As for `COc1ccc(NC(=O)c2sc3nc(C)c(C(O)c4ccc(OC)cc4)cc3c2N)cc1` (stereo not drawn), the GI50 in test [1] is 1.74 µM; in test [2], 0.196 µM; in [3], 1.84 µM; in test [4], 11.1 µM; in test [5] it was 1.65 µM; in test [6], 2.65 µM. Further, the GI50 in [7] is 0.804 µM; in [8], 0.414 µM; in test [9], 3.13 µM; in test [10] it was 0.156 µM. The TGI in [1], in test [2], in test [3], in [4], in test [5] and in test [6] was > 50 µM throughout. Also, the TGI in test [7] was 2.89 µM; in test [8] it was > 50 µM; in test [9], > 50 µM; in [10], 39.1 µM.
With `COc1cccc(Cn2cc3c(c2)-c2oncc2CC3)c1`, the GI50 is 0.378 µM in test [2]; 0.543 µM in test [3]; 4.13 µM in test [4]; 0.314 µM in [5]; 0.915 µM in test [6]; 0.442 µM in [7]. Further, the figures for the GI50 in test [8], in test [9] and in test [10] were 0.401 µM, 0.508 µM and 0.239 µM, respectively. In addition, the TGI in [2] was > 100 µM; in [3] it was > 100 µM; in [4], > 79.7 µM; in test [5], 1.24 µM; in [6], 80.1 µM; in test [7], 7.98 µM. For the same compound, the figures for the TGI in test [8], in [9] and in test [10] were > 38.1 µM, > 77 µM and 1.19 µM, respectively.
As to `BrC(Br)(Br)c1cnc2ccccc2n1`, the GI50 in test [1] was 2.72 µM; in test [2], 1.53 µM; in test [3] it was 3.33 µM; in test [4] it was 2.02 µM; in test [5], 2.21 µM; in [6], 1.55 µM. Further, the GI50 is 1.67 µM in test [7], 2.03 µM in test [8], 2.99 µM in [9] and 9 µM in test [10]. In addition, the TGI in test [1] was 7.4 µM; in test [2], 5.42 µM; in test [3] it was 16.1 µM; in test [4], 6.48 µM; in test [5] it was 7.14 µM; in test [6], 5.28 µM. For the same compound, the TGI amounted to 3.6 µM in test [7], 6.2 µM in test [8], 13.2 µM in [9] and 21.2 µM in test [10].
`Cc1ccccc1-n1c(/C=C\c2ccccn2)nc2ccccc2c1=O`: the GI50 in test [1] was 14.4 µM; in test [2] it was 10.1 µM; in test [3], 32.1 µM; in [4] it was 31 µM; in test [5] it was 3.4 µM; in test [6] it was 18.8 µM. The GI50 in [7] was 15.9 µM; in test [8] it was 7.39 µM; in test [9] it was 23.7 µM; in test [10], 9.47 µM. In addition, the TGI in test [1] is 38.5 µM; in test [2], 58.7 µM; in [3] it was > 100 µM; in test [4] it was > 100 µM; in test [5], 11.3 µM; in test [6], 42.1 µM. Also, the TGI in test [7] is 29.9 µM; in test [8] it was 37.2 µM; in test [9] it was > 100 µM; in [10], 70.6 µM.
Regarding `COC(=O)c1c2c(c(C)[n+]([O-])c1C)C(=O)C(NCc1cccc(OC)c1)=CC2=O`, the GI50 in [1] was 2.55 µM; in test [2], 1.65 µM; in [3] it was 2.42 µM; in test [4], 1.55 µM; in test [5], 3.43 µM; in [6], 0.318 µM. The GI50 in [7] is 3.12 µM; in test [8] it was 1.89 µM; in test [9], 2.11 µM; in test [10], 1.79 µM. Moreover, the TGI in test [1] was 7.49 µM; in [2] it was 3.63 µM; in [3], 7 µM; in test [4], 3.27 µM; in test [5] it was 12 µM; in test [6], 1.3 µM. Moreover, the TGI is 9.64 µM in test [7], 4.73 µM in test [8], 5.44 µM in test [9] and 5.3 µM in test [10].
On to `COc1cc(/C=C2\CC3C4CC=C5C[C@@H](N6CCCC6)CC[C@]5(C)C4CC[C@]3(C)[C@H]2OC(C)=O)ccc1OCCN1CCCCC1` (stereo partly drawn), for which the GI50 in [1] was 1.87 µM; in test [2], 3.02 µM; in test [3] it was 2.84 µM; in test [4] it was 1.93 µM; in test [5] it was 1.57 µM; in test [6], 0.164 µM. Moreover, the GI50 is 0.397 µM in test [7], 1.37 µM in test [8], 1.99 µM in test [9] and 1.76 µM in test [10]. Besides, the TGI in [1] is 3.36 µM; in test [2] it was > 100 µM; in [3], 5.83 µM; in [4], 3.91 µM; in test [5] it was 3.67 µM; in test [6], 0.529 µM. The TGI came out at 0.85 µM in [7], 2.8 µM in test [8], 4.3 µM in test [9] and 3.41 µM in [10].

These data come from PubChem BioAssay (NCI).
